Reference: ChEMBL document CHEMBL1201862, “PubChem BioAssay data set” (2004)
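In this assay, cells in 96-well plates receive the compound at five concentrations for 48 hours. Endpoints are linearly interpolated between the surrounding concentrations. GI50 is the concentration that inhibits growth by half.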 The source made the active and inactive calls. Cut-off read from the data, not from the text of the source: active = GI50 up to about 1.1 µM and inactive = higher.

Experiments:
Experiment in all cases: DTP human tumour cell line panel, 48 h
[1] = tested on: 786-0
[2] = tested on: NCI-H460
[3] = tested on: UACC-62
[4] = tested on: NCI-H23
[5] = tested on: LOX IMVI
[6] = tested on: OVCAR-3
[7] = tested on: M14
[8] = tested on: RXF 393
[9] = tested on: CCRF-CEM
[10] = tested on: RXF 631
[11] = tested on: SNB-19
[12] = tested on: K562
[13] = tested on: U-251
[14] = tested on: SF-295
[15] = tested on: SF-539
[16] = tested on: SNB-75
[17] = tested on: A498
[18] = tested on: KM12
[19] = tested on: OVCAR-5
[20] = tested on: SK-MEL-5
[21] = tested on: HOP-18
[22] = tested on: UO-31
[23] = tested on: SR
[24] = tested on: DMS-114
[25] = tested on: CAKI-1
[26] = tested on: HT-29
[27] = tested on: UACC-257
[28] = tested on: OVCAR-4
[29] = tested on: Malme-3M
[30] = tested on: RPMI-8226
[31] = tested on: HOP-62
[32] = tested on: IGROV-1
[33] = tested on: SK-MEL-28
[34] = tested on: SK-OV-3
[35] = tested on: SN12C
[36] = tested on: MOLT-4
[37] = tested on: LXFL 529
[38] = tested on: COLO 205
[39] = tested on: M19-MEL
[40] = tested on: A549
[41] = tested on: HL-60
[42] = tested on: SK-MEL-2
[43] = tested on: HOP-92
[44] = tested on: SW-620
[45] = tested on: SF-268
[46] = tested on: TK-10
[47] = tested on: DMS-273
[48] = tested on: SNB-78
[49] = tested on: DLD-1
[50] = tested on: NCI-H522
[51] = tested on: EKVX
[52] = tested on: HCT-116
[53] = tested on: NCI-H226
[54] = tested on: ACHN
[55] = tested on: OVCAR-8
[56] = tested on: KM-20L2
[57] = tested on: HCC 2998
[58] = tested on: HCT-15

## CCCCCCCCCCCCC(=O)CCCCC(=O)O
[1]
  GI50: 27.2 µM (inactive)
[2]
  GI50: 19.4 µM (inactive)
[3]
  GI50: 17.9 µM (inactive)
[4]
  GI50: 35.2 µM (inactive)
[5]
  GI50: 21 µM (inactive)
[6]
  GI50: 31.8 µM (inactive)
[7]
  GI50: 17.5 µM (inactive)
[8]
  GI50: 34.9 µM (inactive)
[9]
  GI50: 33.7 µM (inactive)
[10]
  GI50: 18.7 µM (inactive)
[11]
  GI50: 54.7 µM (inactive)
[12]
  GI50: 16.2 µM (inactive)
[13]
  GI50: 24.4 µM (inactive)
[14]
  GI50: 23.4 µM (inactive)
[15]
  GI50: 17.5 µM (inactive)
[16]
  GI50: 23.4 µM (inactive)
[17]
  GI50: 16.8 µM (inactive)
[18]
  GI50: 15.8 µM (inactive)
[19]
  GI50: 18.2 µM (inactive)
[20]
  GI50: 18.2 µM (inactive)
[21]
  GI50: 16 µM (inactive)
[22]
  GI50: 23.9 µM (inactive)
[23]
  GI50: 19.5 µM (inactive)
[24]
  GI50: 18.8 µM (inactive)
[25]
  GI50: 32.5 µM (inactive)
[26]
  GI50: 15.8 µM (inactive)
[27]
  GI50: 38 µM (inactive)
[28]
  GI50: 58.5 µM (inactive)
[29]
  GI50: 21.6 µM (inactive)
[30]
  GI50: 16.7 µM (inactive)
[31]
  GI50: 18.3 µM (inactive)
[32]
  GI50: 17.3 µM (inactive)
[33]
  GI50: 20.7 µM (inactive)
[34]
  GI50: 68.2 µM (inactive)
[35]
  GI50: 24 µM (inactive)
[36]
  GI50: 14.6 µM (inactive)
[37]
  GI50: 18 µM (inactive)
[38]
  GI50: 16.7 µM (inactive)
[39]
  GI50: 18.2 µM (inactive)
[40]
  GI50: 18.3 µM (inactive)
[41]
  GI50: 13.5 µM (inactive)
[42]
  GI50: 20.7 µM (inactive)
[43]
  GI50: 18.6 µM (inactive)
[44]
  GI50: 30.3 µM (inactive)
[45]
  GI50: 31.6 µM (inactive)
[46]
  GI50: 44.9 µM (inactive)
[47]
  GI50: 33.4 µM (inactive)
[48]
  GI50: 72.6 µM (inactive)
[49]
  GI50: 17.9 µM (inactive)
[50]
  GI50: 20.3 µM (inactive)
[51]
  GI50: 33.3 µM (inactive)
[52]
  GI50: 20.6 µM (inactive)
[53]
  GI50: 22.9 µM (inactive)
[54]
  GI50: 26.5 µM (inactive)
[55]
  GI50: 17.5 µM (inactive)

## COc1ccc(-c2onc(-c3c(C)cc(C)cc3C)c2C2=NCCN2)cc1
[1]
  GI50: 31.1 µM (inactive)
[2]
  GI50: 28.8 µM (inactive)
[56]
  GI50: 28.3 µM (inactive)
[3]
  GI50: 36.3 µM (inactive)
[4]
  GI50: > 100 µM (inactive)
[5]
  GI50: 30.1 µM (inactive)
[6]
  GI50: > 10 µM (inactive)
[7]
  GI50: 19.5 µM (inactive)
[8]
  GI50: 39.2 µM (inactive)
[9]
  GI50: 34 µM (inactive)
[10]
  GI50: 70.6 µM (inactive)
[11]
  GI50: 33.9 µM (inactive)
[12]
  GI50: 28.2 µM (inactive)
[13]
  GI50: 18.9 µM (inactive)
[14]
  GI50: 17.6 µM (inactive)
[15]
  GI50: 20 µM (inactive)
[16]
  GI50: 84.9 µM (inactive)
[18]
  GI50: 44.5 µM (inactive)
[57]
  GI50: 44.1 µM (inactive)
[19]
  GI50: > 100 µM (inactive)
[20]
  GI50: 17.2 µM (inactive)
[21]
  GI50: 10.9 µM (inactive)
[22]
  GI50: 17.1 µM (inactive)
[23]
  GI50: 32.2 µM (inactive)
[25]
  GI50: 21.1 µM (inactive)
[26]
  GI50: 25.5 µM (inactive)
[27]
  GI50: 18.7 µM (inactive)
[28]
  GI50: > 100 µM (inactive)
[29]
  GI50: 33.3 µM (inactive)
[30]
  GI50: 29 µM (inactive)
[31]
  GI50: 59.2 µM (inactive)
[32]
  GI50: > 100 µM (inactive)
[33]
  GI50: 22.8 µM (inactive)
[34]
  GI50: 14.2 µM (inactive)
[35]
  GI50: 48.6 µM (inactive)
[36]
  GI50: 39.8 µM (inactive)
[37]
  GI50: > 100 µM (inactive)
[38]
  GI50: 20.4 µM (inactive)
[39]
  GI50: 86.5 µM (inactive)
[40]
  GI50: 74.5 µM (inactive)
[41]
  GI50: 16.4 µM (inactive)
[42]
  GI50: 48.2 µM (inactive)
[44]
  GI50: 47.2 µM (inactive)
[45]
  GI50: 36.7 µM (inactive)
[48]
  GI50: 35.2 µM (inactive)
[49]
  GI50: 74 µM (inactive)
[50]
  GI50: > 10 µM (inactive)
[51]
  GI50: 70 µM (inactive)
[52]
  GI50: 20.4 µM (inactive)
[58]
  GI50: 40.3 µM
[53]
  GI50: 17.8 µM (inactive)
[54]
  GI50: 86.3 µM (inactive)
[55]
  GI50: 34.8 µM (inactive)

## COc1ccc(NN=C2C(=O)CCC2=O)cc1
[1]
  GI50: > 100 µM (inactive)
[2]
  GI50: > 100 µM (inactive)
[3]
  GI50: 5.69 µM (inactive)
[4]
  GI50: 69 µM (inactive)
[5]
  GI50: > 100 µM (inactive)
[6]
  GI50: > 100 µM (inactive)
[7]
  GI50: 57.3 µM (inactive)
[8]
  GI50: > 100 µM (inactive)
[9]
  GI50: > 100 µM (inactive)
[10]
  GI50: > 100 µM (inactive)
[11]
  GI50: > 100 µM (inactive)
[12]
  GI50: > 100 µM (inactive)
[13]
  GI50: > 100 µM (inactive)
[14]
  GI50: 98.9 µM (inactive)
[15]
  GI50: > 100 µM (inactive)
[16]
  GI50: > 100 µM (inactive)
[17]
  GI50: 55 µM (inactive)
[18]
  GI50: > 100 µM (inactive)
[57]
  GI50: > 100 µM (inactive)
[19]
  GI50: > 100 µM (inactive)
[20]
  GI50: 48.2 µM (inactive)
[21]
  GI50: > 100 µM (inactive)
[22]
  GI50: 98.9 µM (inactive)
[24]
  GI50: > 100 µM (inactive)
[25]
  GI50: > 100 µM (inactive)
[26]
  GI50: > 100 µM (inactive)
[27]
  GI50: 52.4 µM (inactive)
[28]
  GI50: 37.5 µM (inactive)
[29]
  GI50: > 100 µM (inactive)
[31]
  GI50: 50 µM (inactive)
[32]
  GI50: > 100 µM (inactive)
[33]
  GI50: > 100 µM (inactive)
[34]
  GI50: > 100 µM (inactive)
[35]
  GI50: > 100 µM (inactive)
[36]
  GI50: > 100 µM (inactive)
[38]
  GI50: 47.2 µM (inactive)
[39]
  GI50: > 100 µM (inactive)
[40]
  GI50: 18.3 µM (inactive)
[41]
  GI50: > 100 µM (inactive)
[42]
  GI50: > 100 µM (inactive)
[43]
  GI50: > 100 µM (inactive)
[44]
  GI50: > 100 µM (inactive)
[45]
  GI50: > 100 µM (inactive)
[46]
  GI50: > 100 µM (inactive)
[47]
  GI50: > 100 µM (inactive)
[48]
  GI50: > 100 µM (inactive)
[49]
  GI50: > 100 µM (inactive)
[51]
  GI50: > 100 µM (inactive)
[52]
  GI50: > 100 µM (inactive)
[58]
  GI50: > 100 µM
[53]
  GI50: > 100 µM (inactive)
[54]
  GI50: 74.3 µM (inactive)
[55]
  GI50: > 100 µM (inactive)

## c1ccc(-c2ccnc3c2ccc2c(-c4ccccc4)ccnc23)cc1
[1]
  GI50: 2.64 µM (inactive)
[2]
  GI50: 2.39 µM (inactive)
[56]
  GI50: 3.73 µM (inactive)
[3]
  GI50: 0.418 µM (active)
[4]
  GI50: 1.85 µM (inactive)
[5]
  GI50: 2.31 µM (inactive)
[6]
  GI50: 2.47 µM (inactive)
[7]
  GI50: 3.37 µM (inactive)
[8]
  GI50: 1.83 µM (inactive)
[9]
  GI50: 0.465 µM (active)
[10]
  GI50: 0.604 µM (active)
[11]
  GI50: 1.19 µM (inactive)
[12]
  GI50: 0.621 µM (active)
[13]
  GI50: 1.17 µM (inactive)
[15]
  GI50: 2.06 µM (inactive)
[16]
  GI50: 2.92 µM (inactive)
[17]
  GI50: 2.53 µM (inactive)
[18]
  GI50: 0.628 µM (active)
[19]
  GI50: 1.04 µM (active)
[20]
  GI50: 0.736 µM (active)
[21]
  GI50: 2.34 µM (inactive)
[22]
  GI50: 0.5 µM (active)
[23]
  GI50: 0.273 µM (active)
[24]
  GI50: 0.382 µM (active)
[26]
  GI50: 1.18 µM (inactive)
[27]
  GI50: 2.28 µM (inactive)
[28]
  GI50: 2.28 µM (inactive)
[29]
  GI50: 4.06 µM (inactive)
[31]
  GI50: 1.89 µM (inactive)
[32]
  GI50: 0.931 µM (active)
[33]
  GI50: 4.57 µM (inactive)
[34]
  GI50: 2.65 µM (inactive)
[35]
  GI50: 2.26 µM (inactive)
[36]
  GI50: 0.514 µM (active)
[37]
  GI50: 0.71 µM (active)
[38]
  GI50: 2.98 µM (inactive)
[39]
  GI50: 1.74 µM (inactive)
[40]
  GI50: 0.875 µM (active)
[41]
  GI50: 0.809 µM (active)
[42]
  GI50: 3.37 µM (inactive)
[44]
  GI50: 3.72 µM (inactive)
[45]
  GI50: 3.12 µM (inactive)
[46]
  GI50: 0.279 µM (active)
[47]
  GI50: 2.56 µM (inactive)
[48]
  GI50: 5.05 µM (inactive)
[49]
  GI50: 2.47 µM (inactive)
[50]
  GI50: 1.46 µM (inactive)
[51]
  GI50: 0.664 µM (active)
[52]
  GI50: 0.555 µM (active)
[58]
  GI50: 1.06 µM
[53]
  GI50: 1.65 µM (inactive)
[54]
  GI50: 1.11 µM (active)
[55]
  GI50: 1.48 µM (inactive)
